Experimental findings from patent publication US8349835B2, “Aromatic ring fused triazine derivatives and uses thereof” (Shenyang Pharmaceutical University, priority 2008, dated 2013) are described below.

For one experiment, the system named is Rat aortic ring. As to the kind of experiment: Rat Aortic Ring Assay. In kind it is cell-based. Particulars: for Rat Aortic Ring Assay (10 ug/ml), result in words: observed on the sixth day. A digest of the protocol:
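1 mm abdominal aortic rings from 6-week-old SD animals embedded in Matrigel, cultured in DMEM/10% FBS with compound at various concentrations (≥3 wells), medium and compound renewed day 3. Microvessel area imaged on day 6 (×100, 3 random rings); inhibition rate scored: ⋆<30-60%, ⋆⋆60-90%, ⋆⋆⋆>90%.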

The next experiment has as its target VEGFR-2 (Homo sapiens, UniProt P35968). As to the kind of experiment: VEGFR-2 inhibition rate test (kinase assay kit, colorimetric ELISA). Conditions: concentration not given.
The subject of experiment [1] is Microvascular Endothelial Cells (MVEC). As to the kind of experiment: MTT growth inhibition of MVEC. In kind it is cell-based. Conditions: Endothelial cell, 96 h, 4 days culture with drug, read-out: IG50 on inhibiting growth of MVEC. As for the experimental part:
In Vitro Anti-Tumor Activity Test
Put cell suspension into centrifugal tubes with a pipette under sterile conditions, then the cell suspension was centrifuged for 3 minutes at 1300 rpm. Discarded the supernatant lightly and added fresh culture medium. Mixed the cells by pipetting, then transferred the cells into culture flasks, and put them into the CO2 incubator. Changed the culture medium once after 24 hours.
Human prostate cancer cells (DU145, PC-3) were cultured in a medium containing RPMI1640 basic medium supplemented with 10% heat-inactivated FBS, 100 IU/mL penicillin, 100 μg/mL streptomycin and 1 mmol/L L-glutamine. Human breast carcinoma cells (T47D, MDA-MB231) were cultured in a medium containing RPM11640 basic medium supplemented with 10% heat-inactivated FBS, 5 μg/mL insulin, 100 IU/mL penicillin, 100 μg/mL streptomycin and 1 mmol/L L-glutamine. Human breast carcinoma cells (MCF-7) were cultured in a medium containing DMEM basic medium supplemented with 10% heat-inactivated FBS, 5 μg/mL insulin, 100 IU/mL penicillin, 100 μg/mL streptomycin and […]. Murine Lewis lung cancer cells (LL/2), murine melanoma cells (B16FD) and Microvascular Endothelial Cells (MVEC) were cultured in a medium containing DMEM basic medium supplemented with 10% heat-inactivated FBS, 4.5 g/L glucose, 1.5 g/L NaHCO3, 100 IU/mL penicillin, 100 μg/mL streptomycin and 4 mmol/L L-glutamine. All these cell lines were incubated at 37° C. biochemical incubator with 5% CO2 saturated humidity.
After resuscitation, the cells were passed for 2-3 generations till they became stable, then they were used for the experiments. Each passage was based on the standard that all cells were spread over the bottoms of culture flasks.
Cells were digested off from the bottoms of culture flasks with trypsin (0.25%). The cell dissociation buffer was transferred into centrifuge tubes, added medium to stop the digestion, and centrifuged for 3 minutes at 1300 rpm. Discarded the supernatant lightly and added fresh culture medium (5 mL). Mixed the cells by pipetting, then added 10 μL of the cell suspension into the cell counting plate, and adjusted the cell concentration to 2×10^4 cells/mL. Added 100 μL of the cell suspension to all wells on the 96 well plates, except A1 well as the blank control. Put the plates into the biochemical incubator for 24 hours and to make sure the cells grew along the walls.
The drugs were dissolved in 80 mmol/L DMSO first, and then diluted the drugs with ethanol to 8 mmol/L. The solution was further diluted with the culture medium to different concentrations as 160 μmol/L, 120 μmol/L, 80 μmol/L, 40 μmol/L, 20 μmol/L and 10 μmol/L. Added 100 μL of the drug solution to each well on the 96 well plates. Therefore, the final concentrations of the drugs that were added to the cells were 80 μmol/L, 40 μmol/L, 20 μmol/L, 10 μmol/L and 5 μmol/L, and each concentration were repeated in three parallel wells. Put the culture plates into the biochemical incubator to culture continuously for 4 days.
Added 50 μL MTT liquids (2 mg/mL) into each well, put the culture plates into the biochemical incubator for 4 h, discarded MTT liquids (TCC), added 200 μL DMSO, then oscillated for 10 minutes on the magnetic oscillator to make sure that the survived cells and the reaction product of MTT were fully dissolved. Detected and recorded the absorbance (OD) values of each well at the wavelength of 570 nm using the microplate reader. The OD values of cells without tested drugs were used as control. The cell growth inhibition rates under each drug concentration were calculated by the following formula. […] Inhibition rate of growth(%)=(1−The absorbance(OD)of cells with tested drugs/The absorbance(OD)of the blank control group)×100%
The absorbance (OD) of cells with tested drugs: OD value is measured with the test drugs.
The absorbance (OD) of the blank control group: OD value is measured without the test drugs. […]

Experiment [2] concerns chorioallantoic membrane vessels. As to the kind of experiment: Activity test by chick chorioallantoic membrane method. Particulars: 5 uL medicine on cellulose membrane, chick embryo, 2 days. In kind it is in vivo. As for the experimental part:
After the shell membrane became wet, tore it open with ophthalmological tweezers so to expose the chorioallantoic membrane. • 6) Added 5 uL of selected medicine to a 0.5×0.5 cm cellulose membrane sterilized by high pressure, then set the membrane on the part of the chorioallantoic membrane with fewer vessels • 7) Closed the window, and put the embryos back into the hatch box to hatch for 2 days. • 8) Opened the transparent tape, and then opened the mixed cellulose membrane lightly with a tweezers. Measured the avascular area and took photographs.

VEGFR-2, sequence (P35968 20-1356): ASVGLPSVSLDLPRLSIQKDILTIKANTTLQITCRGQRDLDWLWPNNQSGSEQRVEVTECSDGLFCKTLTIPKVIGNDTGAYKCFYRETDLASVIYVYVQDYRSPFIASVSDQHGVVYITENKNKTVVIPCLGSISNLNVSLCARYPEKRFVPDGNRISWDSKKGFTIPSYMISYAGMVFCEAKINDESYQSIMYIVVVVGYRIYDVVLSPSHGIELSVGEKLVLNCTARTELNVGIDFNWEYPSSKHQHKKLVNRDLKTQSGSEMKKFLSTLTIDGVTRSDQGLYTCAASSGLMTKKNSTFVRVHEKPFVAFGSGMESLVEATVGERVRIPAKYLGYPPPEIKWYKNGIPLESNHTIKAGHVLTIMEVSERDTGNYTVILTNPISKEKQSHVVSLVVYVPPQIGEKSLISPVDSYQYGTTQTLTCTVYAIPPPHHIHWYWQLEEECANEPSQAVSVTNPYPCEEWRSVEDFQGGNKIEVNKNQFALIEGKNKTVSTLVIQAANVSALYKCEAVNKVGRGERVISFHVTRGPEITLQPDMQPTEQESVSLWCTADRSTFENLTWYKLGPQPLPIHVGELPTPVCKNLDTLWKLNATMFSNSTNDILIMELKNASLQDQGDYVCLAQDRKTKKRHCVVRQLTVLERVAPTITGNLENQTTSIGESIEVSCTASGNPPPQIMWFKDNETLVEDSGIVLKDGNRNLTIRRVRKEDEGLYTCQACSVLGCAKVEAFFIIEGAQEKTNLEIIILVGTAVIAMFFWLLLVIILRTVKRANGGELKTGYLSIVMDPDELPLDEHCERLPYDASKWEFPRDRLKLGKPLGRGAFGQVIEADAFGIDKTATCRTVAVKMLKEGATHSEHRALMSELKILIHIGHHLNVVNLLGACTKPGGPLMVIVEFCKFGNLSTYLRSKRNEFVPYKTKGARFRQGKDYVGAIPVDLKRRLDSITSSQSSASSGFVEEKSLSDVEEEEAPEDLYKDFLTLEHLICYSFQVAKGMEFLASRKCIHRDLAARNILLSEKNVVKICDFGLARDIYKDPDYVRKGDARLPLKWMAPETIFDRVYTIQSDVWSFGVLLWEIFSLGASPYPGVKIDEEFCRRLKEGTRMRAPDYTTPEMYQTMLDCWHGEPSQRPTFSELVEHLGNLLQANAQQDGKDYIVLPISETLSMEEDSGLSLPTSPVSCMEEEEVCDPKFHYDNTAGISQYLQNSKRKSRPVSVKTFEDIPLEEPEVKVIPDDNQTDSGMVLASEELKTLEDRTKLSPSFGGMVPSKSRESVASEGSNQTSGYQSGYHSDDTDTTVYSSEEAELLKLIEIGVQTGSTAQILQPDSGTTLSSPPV
Description for VEGFR-2: VEGFR-2 Inhibition Rate Test
Experiments were carried out according to the Kit instruction as the follows
1) Added 10 μL 10 mM ATP to 1.25 ml 6 μM substrate peptide, and diluted the mixture to 2.5 mL with pure water to prepare the reaction solution of 2×ATP/Substrate (ATP=40 μM, Substrate=3 μm).
2) Quickly moved VGFR-2 Kinase from −80° C. to the ice to be thawed.
3) Centrifuged at 4° C. shortly, then the liquid was centrifuged to the bottoms of the containers and moved back on the ice.
5) Added 0.6 mL DTT/Kinase buffer solution to a tube containing the kinase to prepare 4× Reaction solution (Kinase=8 ng/μL).
6) Diluted 12.5 μL of selected compound by the same volume, then mixed with 12.5 μL 4× Reaction solution of Kinase, and incubated for 5 minutes at room temperature.
7) Added 25 μL 2× Reaction solution of ATP/Substrate into the above solution.
8) Incubated for 30 minutes at room temperature.
10) Added 25 μL reaction solution and 75 μL pure water to Streptavidin coated plates and incubated for 60 minutes at room temperature.
11) Diluted Phospho-Tyrosin mAb with PBS/T containing 1% BSA to one thousandth, and added 100 uL of the diluted Ab to each well.
12) Incubated for 60 minutes at room temperature.
13) Washed the plate three times with 200 μL PBS/T for each well.
Detection of Colorimetric ELISA
14) Secondary antibody was diluted with PBS/T containing 1% BSA marked by HRP (IgG of anti-rat diluted to 1/500, and IgG of anti-rabbit diluted to 1/1000).
15) Added 100 μL diluted secondary antibody to each well.
16) Incubated for 30 minutes at room temperature.
17) Washed the plate five times with 200 μL PBS/T for each well.
18) Added 100 μL TMB substrate to each well.
20) Added 100 μL Sulfuric acid solution (2N) to each well to stop the reaction, and mixed evenly.
21) Detected the absorbance at 450 nm with Microplate Reader and calculated enzyme inhibition rate.

On to `CCCCOc1cc2nnnc(Nc3ccc(F)c(Cl)c3)c2cc1OC` [Example 22, 6-methoxy-7-n-butoxy-4-(3-chloro-4-fluoroanilino)-benzo[d][1,2,3]triazine], for which the “Rat Aortic Ring Assay (10 ug/ml), result in words” value (from here on “Rat Aortic Ring Assay (10 ug/ml)”) with Rat aortic ring was “Cell proliferation and migration were affected. Endothelial cell”. Also, the “Kinase inhibition rate (VEGFR-2)” value on VEGFR-2 worked out at 0.80. For the same compound, in experiment [1], the IC50 turned out to be 17.4 µM. Also, the “The inhibitory effect on the growth of chorioallantoic membrane vessels” value (shortened to “The inhibitory effect on the growth”) in experiment [2] is on record as “The vessels are fractured at the central part that is covered by paper”.

As to `CCCCOc1cc2nnnc(Nc3ccc(F)c(C(F)(F)F)c3)c2cc1OC` [Example 23, 6-methoxy-7-n-butoxy-4-(3-trifluoromethyl-4-fluoroanilino)-benzo[d][1,2,3]triazine], the “Rat Aortic Ring Assay (10 ug/ml)” value in the experiment with Rat aortic ring is “Cell morphology was similar to D10, and cells were linear”. Further, the IC50 in experiment [1] came out at 16.1 µM. Moreover, the “The inhibitory effect on the growth” value in experiment [2] was “The vessels covered by paper become thinner and fewer”.

As for `CCOc1cc2nnnc(Nc3cccc(OC(F)(F)F)c3)c2cc1OC` [Example 36, 6-methoxy-7-ethoxy-4-(3-trifluoromethoxyanilino)-1,2,3-benzotriazine], in the experiment with Rat aortic ring, the “Rat Aortic Ring Assay (10 ug/ml)” value is reported as “Almost complete inhibition (10 μg/mL)”. Also, the IC50 in experiment [1] came to 23.3 µM. Further, the “The inhibitory effect on the growth” value in experiment [2] is given as “One sample exhibits no vascular growth at the zone covered by paper”.

With `CCOc1cc2nnnc(Nc3ccc(F)c(C(F)(F)F)c3)c2cc1OC` [Example 40, 6-methoxy-7-ethoxy-4-(3-trifluoromethyl-4-fluoroanilino)-benzo[d][1,2,3]triazine], the “Rat Aortic Ring Assay (10 ug/ml)” value with Rat aortic ring is “No significant inhibition”. In experiment [1], the IC50 turned out to be 31.7 µM. The “The inhibitory effect on the growth” value in experiment [2] is given as “One of the two samples exhibits inhibition”.

For `CCCCCOc1cc2nnnc(Nc3cc(F)cc(F)c3)c2cc1OC` [Example 47, 6-methoxy-7-pentyloxy-4-(3,5-difluoroanilino)-benzo[d][1,2,3]triazine], the “Rat Aortic Ring Assay (10 ug/ml)” value in the experiment with Rat aortic ring is given as “No significant inhibition”. In addition, in experiment [1], the IC50 is 27.9 µM. The “The inhibitory effect on the growth” value in experiment [2] was “The vessels in the paper covered zone become fewer,”.

`CCCCCOc1cc2nnnc(Nc3cccc(C(F)(F)F)c3)c2cc1OC` [Example 50, 6-methoxy-7-pentyloxy-4-(3-trifluoromethylanilino)-benzo[d][1,2,3]triazine]: the “Rat Aortic Ring Assay (10 ug/ml)” value in the experiment on Rat aortic ring is on record as “No significant inhibition compared with the blank control”. Moreover, the “Kinase inhibition rate (VEGFR-2)” value on VEGFR-2 is −9.35. In addition, the “The inhibitory effect on the growth” value in experiment [2] was “One of the two samples exhibits inhibition ring”.

As to `CCCCCOc1cc2nnnc(Nc3ccc(C(F)(F)F)cc3)c2cc1OC` [Example 51, 6-methoxy-7-pentyloxy-4-(4-trifluoromethylanilino)-benzo[d][1,2,3]triazine], the “Rat Aortic Ring Assay (10 ug/ml)” value in the experiment on Rat aortic ring is reported as “No significant inhibition”. Moreover, on VEGFR-2, the “Kinase inhibition rate (VEGFR-2)” value was −18.71. In experiment [2], the “The inhibitory effect on the growth” value is given as “The samples exhibit significant inhibition ring”.

On to `CCCCCOc1cc2nnnc(Nc3cccc(OC(F)(F)F)c3)c2cc1OC` [Example 53, 6-methoxy-7-pentyloxy-4-(3-trifluoromethoxyanilino)-benzo[d][1,2,3]triazine], for which, in the experiment with Rat aortic ring, the “Rat Aortic Ring Assay (10 ug/ml)” value was “No significant inhibition”. Besides, on VEGFR-2, the “Kinase inhibition rate (VEGFR-2)” value is 11.22. Moreover, in experiment [1], the IC50 turned out to be 38 µM. The “The inhibitory effect on the growth” value in experiment [2] is given as “Both of the samples exhibit inhibition ring at the central part of the paper,”.

In the case of `COc1cc2c(Nc3ccccc3)nnnc2cc1OCCCCl` [Example 61, 6-methoxy-7-chloropropoxy-4-anilino-benzo[d][1,2,3]triazine], in the experiment on Rat aortic ring, the “Rat Aortic Ring Assay (10 ug/ml)” value is “No significant inhibition”. Also, the “Kinase inhibition rate (VEGFR-2)” value on VEGFR-2 is on record as 3.58. The “The inhibitory effect on the growth” value in experiment [2] was “One sample exhibits inhibition ring at the zone covered by paper”.

On to `COc1cc2c(Nc3ccc(Br)c(F)c3)nnnc2cc1OCCCCl` [Example 62, 6-methoxy-7-chloropropoxy-4-(3-fluoro-4-bromoanilino)-benzo[1,2,3]triazine], for which, in the experiment on Rat aortic ring, the “Rat Aortic Ring Assay (10 ug/ml)” value is “No significant inhibition”. The “Kinase inhibition rate (VEGFR-2)” value at VEGFR-2 came to 18.10. In addition, the “The inhibitory effect on the growth” value in experiment [2] is on record as “The embryo is dead”.

As for `COc1cc2c(Nc3ccc(C(F)(F)F)cc3)nnnc2cc1OCCCCl` [Example 68, 6-methoxy-7-chloropropoxy-4-(4-trifluoromethylanilino)-benzo[d][1,2,3]triazine], the “Rat Aortic Ring Assay (10 ug/ml)” value in the experiment with Rat aortic ring is given as “Vascular growth is significantly inhibited”. In addition, the “Kinase inhibition rate (VEGFR-2)” value at VEGFR-2 is 1.51. Also, the “The inhibitory effect on the growth” value in experiment [2] is reported as “Two samples exhibit inhibition at the zone covered by paper”.

As for `COc1cc2c(Nc3ccccc3F)nnnc2cc1OCCCCl` [Example 74, 6-methoxy-7-chloropropoxy-4-(2-fluoroanilino)-benzo[d][1,2,3]triazine], the “Rat Aortic Ring Assay (10 ug/ml)” value in the experiment on Rat aortic ring was “Vessel density was small, cells were elongated and cell”. Further, the “Kinase inhibition rate (VEGFR-2)” value at VEGFR-2 was 0.26. Besides, the “The inhibitory effect on the growth” value in experiment [2] was “The vessels become rare and are fractured at the zone covered by paper”.

Turning to `COc1cc2c(Nc3cccc(Br)c3)nnnc2cc1OCCCCl` [Example 75, 6-methoxy-7-chloropropoxy-4-(3-bromoanilino)-benzo[d][1,2,3]triazine], the “Rat Aortic Ring Assay (10 ug/ml)” value with Rat aortic ring is given as “No significant inhibition”. Moreover, the “Kinase inhibition rate (VEGFR-2)” value on VEGFR-2 is reported as 0.80. Moreover, the “The inhibitory effect on the growth” value in experiment [2] is on record as “Smaller inhibition ring appears at the zone covered by paper”.

On to `Fc1ccc(Nc2nnnc3ccc(Cl)nc23)cc1C(F)(F)F` [Example 90, 6-chloro-4-(3-trifluoromethyl-4-fluoroanilino)pyrido[3,2-d][1,2,3]-triazine], for which the IC50 in experiment [1] was 10.8 µM. For the same compound, the “The inhibitory effect on the growth” value in experiment [2] was “One exhibits no inhibition, and embryo of the other sample is dead”.

`Clc1ccc2nnnc(Nc3cccc(Br)c3)c2n1` [Example 92, 6-chloro-4-(3-bromoanilino)-pyrido[3,2-d][1,2,3]triazine] showed an inhibition at 10 µg/mL in the experiment on Rat aortic ring (Rattus norvegicus, 10 ug/ml, compared with blank control, sixth day) above 50%. In addition, the IC50 in experiment [1] was 7.24 µM. For the same compound, in experiment [2], the “The inhibitory effect on the growth” value is “One of the two samples exhibits significant vascular inhibition”.

Take `Fc1ccc(Nc2nnnc3ccc(Cl)nc23)cc1` [Example 93, 6-chloro-4-(4-fluoroanilino)pyrido[3,2-d][1,2,3]triazine]: the “Kinase inhibition rate (VEGFR-2)” value on VEGFR-2 is listed as 5.27. Further, in experiment [1], the IC50 was found to be 11.7 µM. In experiment [2], the “The inhibitory effect on the growth” value is “One of the two samples exhibits death of the embryo, and the other exhibits”.

A word on the inhibition: it is the change of the read-out against control, counted positive when it falls. A low value points to a response near the control.
